biological target: T1, Met kinase domain (GST fusion protein) (Homo sapiens, UniProt P08581); experiment: Met transphosphorylation assay (ELISA, poly(glu-tyr) substrate); format: biochemical; details: Table 2; read-out: Met IC50;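 further: Cell-free ELISA with plate-bound poly(Glu:Tyr 4:1) phosphorylated by GST-fused Met kinase domain plus ATP and Mn2+, phosphotyrosine detected by anti-phosphotyrosine antibody with HRP and ABTS read-out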
T1 construct: Purified GST fusion protein containing the Met kinase domain
T1 sequence (P08581 1078-1345 limits assumed): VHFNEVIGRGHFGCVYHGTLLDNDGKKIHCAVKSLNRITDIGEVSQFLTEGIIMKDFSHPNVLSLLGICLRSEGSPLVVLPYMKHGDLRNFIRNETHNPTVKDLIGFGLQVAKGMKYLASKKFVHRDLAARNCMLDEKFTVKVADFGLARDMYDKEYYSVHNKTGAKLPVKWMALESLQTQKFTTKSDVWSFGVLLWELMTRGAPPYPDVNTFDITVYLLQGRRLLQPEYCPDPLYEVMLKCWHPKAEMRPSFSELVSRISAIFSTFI

| IC50 | Compound |
| --- | --- |
| 0.043 µM | CC(Oc1cc(-c2ccc(OCC3CCCN(C)C3)cc2)cnc1N)c1c(Cl)ccc(F)c1Cl (centres unmarked) [Example I-361, 3-[1-(2,6-Dichloro-3-fluoro-phenyl)-ethoxy]-5-[4-(1-methyl-piperidin-3-ylmethoxy)-phenyl]-pyridin-2-ylamine] |
| 0.052 µM | CC(Oc1cc(-c2ccc(OCCN(C(C)C)C(C)C)cc2)cnc1N)c1c(Cl)ccc(F)c1Cl (centres unmarked) [Example I-362] |
| 0.052 µM | CC(Oc1cc(-c2ccc(OC3CCN(C)CC3)cc2)cnc1N)c1c(Cl)ccc(F)c1Cl (centres unmarked) [Example I-363, 3-[1-(2,6-Dichloro-3-fluoro-phenyl)-ethoxy]-5-[4-(1-methyl-piperidin-4-yloxy)-phenyl]-pyridin-2-ylamine] |
| 0.1 µM | CC(Oc1cc(-c2ccc(NS(C)(=O)=O)cc2)cnc1N)c1c(F)ccc(F)c1Cl (centres unmarked) [Example I-364, N-(4-{6-Amino-5-[1-(2-chloro-3,6-difluoro-phenyl)-ethoxy]-pyridin-3-yl}-phenyl)-methanesulfonamide] |

same assay, conditions: plain numbers in column Met IC50 (μM) of Table 2; read-out: Met IC50

| IC50 | Compound |
| --- | --- |
| 0.14 µM | CC(Oc1cc(-c2ccc(N3CCCS3(=O)=O)cc2)cnc1N)c1c(F)ccc(F)c1Cl (centres unmarked) [Example I-365, 3-[1-(2-Chloro-3,6-difluoro-phenyl)-ethoxy]-5-[4-(1,1-dioxo-1lambda*6*- isothiazolidin-2-yl)-phenyl]-pyridin-2-ylamine] |
| 0.076 µM | CC(Oc1cc(-c2ccc(NS(C)(=O)=O)cc2)cnc1N)c1c(Cl)ccc(F)c1Cl (centres unmarked) [Example I-366, N-(4-{6-Amino-5-[1-(2,6-dichloro-3-fluoro-phenyl)-ethoxy]-pyridin-3-yl}-phenyl)-methanesulfonamide] |
| 0.066 µM | C[C@@H](Oc1cc(-c2ccc(NS(C)(=O)=O)cc2)cnc1N)c1c(F)ccc(F)c1Cl [Example I-368, N-(4-{6-Amino-5-[(R)-1-(2-chloro-3,6-difluoro-phenyl)-ethoxy]-pyridin-3-yl}-phenyl)-methanesulfonamide] |
| 0.055 µM | CC(Oc1cc(-c2ccsc2)cnc1N)c1c(Cl)ccc(F)c1Cl (centres unmarked) [Example I-369, 3-[1-(2,6-Dichloro-3-fluoro-phenyl)-ethoxy]-5-thiophen-3-yl-pyridin-2-ylamine] |
| 1.95 µM | CC(Oc1cc(-c2cc3ccccc3s2)cnc1N)c1c(Cl)ccc(F)c1Cl (centres unmarked) [Example I-370, 5-Benzo[b]thiophen-2-yl-3-[1-(2,6-dichloro-3-fluoro-phenyl)-ethoxy]-pyridin-2-ylamine] |
| 0.057 µM | CC(Oc1cc(-c2ccc(NC(=O)N3CCN(C)CC3)cc2)cnc1N)c1c(Cl)ccc(F)c1Cl (centres unmarked) [Example I-371, 4-Methyl-piperazine-1-carboxylic acid (4-{6-amino-5-[1-(2,6-dichloro-3-fluoro-phenyl)-ethoxy]-pyridin-3-yl}-phenyl)-amide] |
| 0.21 µM | CC(Oc1cc(-c2ccc(NC(=O)NCCN3CCCC3)cc2)cnc1N)c1c(Cl)ccc(F)c1Cl (centres unmarked) [Example I-372, 1-(4-{6-Amino-5-[1-(2,6-dichloro-3-fluoro-phenyl)-ethoxy]-pyridin-3-yl}-phenyl)-3-(2-pyrrolidin-1-yl-ethyl)-urea] |
| 0.064 µM | CC(Oc1cc(-c2ccc(NC(=O)NCCO)cc2)cnc1N)c1c(Cl)ccc(F)c1Cl (centres unmarked) [Example I-373, 1-(4-{6-Amino-5-[1-(2,6-dichloro-3-fluoro-phenyl)-ethoxy]-pyridin-3-yl}-phenyl)-3-(2-hydroxy-ethyl)-urea] |
| 0.062 µM | CC(Oc1cc(-c2ccc(NC(=O)NCCN3CCOCC3)cc2)cnc1N)c1c(Cl)ccc(F)c1Cl (centres unmarked) [Example I-374, 1-(4-{6-Amino-5-[1-(2,6-dichloro-3-fluoro-phenyl)-ethoxy]-pyridin-3-yl}-phenyl)-3-(2-morpholin-4-yl-ethyl)-urea] |
| 0.053 µM | CC(Oc1cc(-c2ccc(NC(=O)N3CC[C@@H](N)C3)cc2)cnc1N)c1c(Cl)ccc(F)c1Cl (stereo partly drawn) [Example I-375, (R)-3-Amino-pyrrolidine-1-carboxylix acid (4-{6-amino-5-[1-(2,6-dichloro-3-fluoro-phenyl)-ethoxy]-pyridin-3-yl}-phenyl)-amide] |

Reference: patent US20050009840A1 (SUGEN, INC., priority 2003, published 2005)
